# In PubChem BioAssay AID687005 (Broad Institute, 2013):
# Results filed as inconclusive are left out. Active and inactive are the calls of the source.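 Rule for the calls: active = Compounds that reduce signal, with fitted half-maximal dose at or under twice the top valid tested dose; inconclusive = Poor fit, or flat curve losing 30 to 70% of signal; inactive = Potency past limit, flat within 30%, or opposite direction.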
# Test: viability loss in HEK293T cells – cell-based, ATP luminescence, cherry-pick samples, cytotoxicity control, dose response (AID 687005)
# Conditions: HEK293T viability, ATP luminescence (CellTiter-Glo), 48 h; at 23.5 µM (top of the series)
row,Compound,"activity change, negative = cytotoxicity"
1,CO[C@@H]1CN(C)C(=O)c2ccc(NC(C)=O)cc2OC[C@@H](C)N(C(=O)Cc2cccnc2)C[C@H]1C,-26.2% (inactive)
2,C[C@H]1CN([C@@H](C)CO)C(=O)Cc2cc(NC(=O)C3CC3)ccc2O[C@H]1CN(C)Cc1ccc(-c2ccccc2)cc1,-24.1% (inactive)
3,C[C@@H]1CCCCO[C@@H](CN(C)C(=O)Nc2ccc3c(c2)OCO3)[C@@H](C)CN([C@H](C)CO)C(=O)c2cc(NC(=O)Nc3cccc4ccccc34)ccc2O1,-9.79% (inactive)
4,CNC(=O)C[C@@H]1CC[C@@H]2[C@H](COc3ccc(NC(=O)c4cc(C)on4)cc3C(=O)N2C)O1,26.8% (inactive)
5,CC(C)NC(=O)Nc1cccc2c1O[C@H](CN(C)C)[C@H](C)CN([C@H](C)CO)C2=O,7.48% (inactive)
6,CN1C(=O)c2cc(NS(C)(=O)=O)ccc2OC[C@@H]2O[C@@H](CC(=O)O)CC[C@@H]21,-2.71% (inactive)

# Same assay, conditions: HEK293T viability, ATP luminescence (CellTiter-Glo), 48 h; at 26 µM (top of the series)
row,Compound,"activity change, negative = cytotoxicity"
1,C[C@@H]1CN([C@@H](C)CO)C(=O)c2cccc(NS(C)(=O)=O)c2O[C@@H]1CN(C)C(=O)Nc1ccc2c(c1)OCO2,-20.4% (inactive)
2,COCC(=O)N1[C@H](C#N)[C@H](c2ccc(C#Cc3ccccc3F)cc2)[C@H]1CO,8.29% (inactive)
3,O=C(N[C@H]1CC[C@@H](CCn2cc(-c3ccccc3)nn2)O[C@@H]1CO)c1cnccn1,40.7% (inactive)
4,C[C@@H]1CN([C@@H](C)CO)C(=O)c2cc(C3=CCCCC3)cnc2O[C@H]1CN(C)C(=O)Cc1cccnc1,-18.3% (inactive)
5,C[C@@H]1CN([C@@H](C)CO)C(=O)c2cc(NC(=O)Nc3cccc4ccccc34)ccc2O[C@@H]1CN(C)C(=O)Nc1ccccc1,42.1% (inactive)
6,Fc1cccc(CCN2C(=S)NC[C@@H]2Cc2ccccc2)c1,-28.1% (inactive)
7,C[C@@H](O)C#Cc1ccc([C@@H]2[C@H]3CN(CC4CC4)CCCCN3[C@H]2CO)cc1,34.5% (inactive)
8,CCCNC(=O)N1C[C@@H]2[C@H](c3ccccc31)[C@H](CO)N2Cc1ccc(OC)cc1,2.66% (inactive)
9,C[C@@H]1CCCCO[C@H](CN(C)Cc2ccncc2)[C@@H](C)CN([C@H](C)CO)C(=O)c2cc(N(C)C)ccc2O1,-3.32% (inactive)
10,COc1cccc(S(=O)(=O)N(C)C[C@@H]2Oc3ncc(-c4cccc(F)c4)cc3C(=O)N([C@H](C)CO)C[C@@H]2C)c1,-18.4% (inactive)
11,O=C(Nc1ccc(F)cc1)N1C[C@H]2[C@@H](c3ccccc31)[C@@H](CO)N2Cc1cocn1,-16.4% (inactive)
12,CCNC(=O)Nc1ccc2c(c1)C(=O)N(C)[C@H]1CC[C@H](CC(=O)Nc3ccccc3F)O[C@@H]1CO2,46.5% (inactive)
13,COc1ccc(CNC(=O)C[C@H]2CC[C@H]3[C@@H](COc4ccc(NC(=O)C5CC5)cc4C(=O)N3C)O2)cc1,26% (inactive)
14,O=C(COc1ccc2c(c1)CCC2)NCc1ccccc1,1.59% (inactive)
15,CCC(C)(C(=O)NC1CCCC1)N(C(C)=O)c1ccc(C)cc1 (stereo not drawn),9.31% (inactive)
16,CC(=O)c1cccc(NC(=S)NC2CCCCCCC2)c1,-21.5% (inactive)
17,O=C(C[C@H]1CC[C@H]2[C@@H](COC[C@@H](O)CN2C(=O)c2ccc(F)cc2)O1)N1CCOCC1,-14.1% (inactive)
18,CCS(=O)(=O)N1CCCCN2[C@H](CO)[C@@H](c3ccc(-c4ccc(C#N)cc4)cc3)[C@@H]2C1,2.55% (inactive)
19,COc1cccc(S(=O)(=O)N(C)C[C@H]2OCc3cnnn3CCCC(=O)N([C@H](C)CO)C[C@H]2C)c1,38.2% (inactive)
20,CCC(=O)N1[C@H](CO)[C@H](c2ccccc2)[C@@H]1CN(CC)C(=O)c1cccc(F)c1,25% (inactive)

row,Compound,"activity change, negative = cytotoxicity"
1,COc1ccccc1C(=O)Nc1ccc2c(c1)OC[C@H](C)N(C(C)=O)C[C@H](C)[C@H](OC)CN(C)C2=O,-41.7% (inactive)
2,CCC(=O)N1[C@H](CO)[C@H](c2ccccc2)[C@H]1CN(CC)C(=O)c1cccc(F)c1,-0.378% (inactive)
3,CN1C(=O)c2cc(NS(=O)(=O)c3cccc(F)c3)ccc2OC[C@@H]2O[C@@H](CC(=O)O)CC[C@H]21,-21.4% (inactive)
4,C[C@H](CO)N1C[C@H](C)[C@H](CN(C)Cc2ccccc2)OCCCC[C@H](C)Oc2ccc(NS(=O)(=O)c3cccs3)cc2C1=O,-20.5% (inactive)
5,COc1ccc(C#Cc2cnc3c(c2)C(=O)N([C@@H](C)CO)C[C@H](C)[C@@H](CN(C)C(=O)CC2CC2)O3)cc1,-34.7% (inactive)
6,C[C@@H]1CN([C@H](C)CO)C(=O)c2cc(NC(=O)Nc3cccc4ccccc34)ccc2O[C@@H]1CN(C)C(=O)Nc1ccccc1,-5.06% (inactive)
7,O=C(NC(=S)Nc1ccccc1N1CCOCC1)c1cccc([N+](=O)[O-])c1,-5.81% (inactive)
8,CCCNC(=O)N1C[C@@H](O)COC[C@H]2O[C@H](CC(=O)N3CCN(C)CC3)CC[C@@H]21,-7.83% (inactive)
9,C[C@@H]1CN([C@@H](C)CO)C(=O)CCCn2nncc2CO[C@H]1CN(C)Cc1cccc(C(F)(F)F)c1,-26.6% (inactive)
10,O=C(C[C@@H]1CC[C@H](NC(=O)Cc2ccccn2)[C@H](CO)O1)NCCc1ccccc1,-2.62% (inactive)
11,C[C@@H]1CN([C@H](C)CO)C(=O)Cc2cc(NC(=O)CCCCCC(=O)Nc3ccccc3N)ccc2O[C@H]1CN(C)C(=O)Nc1ccccc1,0.594% (inactive)
12,CN1C(=O)c2cc(NS(C)(=O)=O)ccc2OC[C@@H]2O[C@@H](CC(=O)O)CC[C@H]21,4.2% (inactive)
13,CN(C)CCCn1c(=O)n(C2CCCCC2)c(=O)c2c3c(sc21)CCCCC3,50.5% (inactive)
14,CO[C@@H]1CC[C@@H]2CCOc3c(C#N)cccc3C(=O)N(C)C[C@H](c3ccccc3)CC(=O)N(C)C[C@@H]1O2,-28.5% (inactive)
15,COC(=O)N(C)C[C@H]1OCc2cn(nn2)CCCC(=O)N([C@H](C)CO)C[C@@H]1C,-11% (inactive)
16,CCCNC(=O)[C@H]1[C@H](CO)[C@H]2Cn3c(cccc3=O)[C@@H]1N2C(=O)Nc1cc(F)ccc1F,42.5% (inactive)
17,Cc1noc(C)c1S(=O)(=O)N(C)C[C@@H]1OCCCC[C@@H](C)Oc2ccc(NC(=O)CCCCCC(=O)Nc3ccccc3N)cc2C(=O)N([C@H](C)CO)C[C@@H]1C,1.87% (inactive)
18,C[C@@H]1CCCCO[C@H](CN(C)S(=O)(=O)c2cccs2)[C@@H](C)CN([C@@H](C)CO)C(=O)c2cc(NC(=O)CCC(F)(F)F)ccc2O1,0.337% (inactive)
19,CCC(=O)N[C@H]1C=C[C@@H](CC(=O)OC)O[C@@H]1CO,-29.7% (inactive)

# Same assay, conditions: HEK293T viability, ATP luminescence (CellTiter-Glo), 48 h; at 30 µM (top of the series)
row,Compound,"activity change, negative = cytotoxicity"
1,COC(=O)C1=C(C)N(CC(C)C)C(=S)NC1c1ccc(Cl)cc1 (stereo not drawn),-20.8% (inactive)

# Same assay, conditions: HEK293T viability, ATP luminescence (CellTiter-Glo), 48 h; at 35 µM (top of the series)
row,Compound,"activity change, negative = cytotoxicity"
1,Cc1cccc(N2CCN(C(=O)C3CCC(=O)N3C(C)C)CC2C)c1 (stereo not drawn),21% (inactive)

# Same assay, conditions: HEK293T viability, ATP luminescence (CellTiter-Glo), 48 h; at 42 µM (top of the series)
row,Compound,"activity change, negative = cytotoxicity"
1,CCCC(=O)N1CCC1(C)C(=O)Nc1cc(C)ccc1C (stereo not drawn),-18.3% (inactive)
